These are literature values, as cited in publication PMC13584777, “Synthesis, Conformational Analysis, and Evaluation of 6R- and 6S‑Methylmannoimidazoles as Mannosidase Inhibitors” (ACS Omega, 2026).

Structures are written as SMILES.

This data set deals with T1, BtMan2A (Bacteroides thetaiotaomicron, UniProt Q8AAK6).
T1 construct: purchased NZYTech CZ0810
As to conditions: Figure 3, authors' earlier study of the 1-deoxymannojirimycin series.

T1 sequence (Q8AAK6 entry or part of it, change not shown): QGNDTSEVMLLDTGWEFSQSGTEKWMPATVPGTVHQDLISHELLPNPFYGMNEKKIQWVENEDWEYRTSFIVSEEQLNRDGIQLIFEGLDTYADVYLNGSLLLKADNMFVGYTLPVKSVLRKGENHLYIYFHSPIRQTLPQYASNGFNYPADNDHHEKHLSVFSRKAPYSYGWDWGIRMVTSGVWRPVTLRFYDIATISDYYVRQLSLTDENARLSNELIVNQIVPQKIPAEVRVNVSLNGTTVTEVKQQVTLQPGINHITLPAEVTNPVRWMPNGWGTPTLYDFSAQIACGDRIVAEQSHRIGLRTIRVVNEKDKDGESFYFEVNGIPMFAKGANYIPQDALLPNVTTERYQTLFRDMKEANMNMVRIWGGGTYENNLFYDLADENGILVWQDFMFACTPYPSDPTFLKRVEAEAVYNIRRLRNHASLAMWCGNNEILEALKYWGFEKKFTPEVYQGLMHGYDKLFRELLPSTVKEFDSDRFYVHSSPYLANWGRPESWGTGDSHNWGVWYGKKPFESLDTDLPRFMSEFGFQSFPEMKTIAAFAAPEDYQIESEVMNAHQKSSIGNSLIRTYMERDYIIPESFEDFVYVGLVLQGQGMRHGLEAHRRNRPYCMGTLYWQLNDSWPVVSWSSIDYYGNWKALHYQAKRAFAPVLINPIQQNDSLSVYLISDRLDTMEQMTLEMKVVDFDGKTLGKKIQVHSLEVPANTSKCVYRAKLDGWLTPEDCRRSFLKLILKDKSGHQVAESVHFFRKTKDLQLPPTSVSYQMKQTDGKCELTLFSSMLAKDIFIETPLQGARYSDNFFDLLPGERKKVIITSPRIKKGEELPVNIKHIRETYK

Consider `C[C@@H](O)[C@H]1NC[C@@H](O)[C@@H](O)[C@@H]1O` [compound 1, 6R-methyl-1-deoxymannojirimycin], for which the inhibition constant Ki (in general, a dissociation constant, usually derived from enzyme kinetics or from competition with a known ligand) was 14 ± 1 mM.

As for `C[C@H](O)[C@H]1NC[C@@H](O)[C@@H](O)[C@@H]1O` [compound 2, 6S-methyl-1-deoxymannojirimycin], the Ki was 1.4 ± 0.2 mM.
